Results on one compound are retold here after ChEMBL document CHEMBL5584236, “Development of novel bisphenol derivatives with a membrane-targeting mechanism as potent gram-positive antibacterial agents” (Eur J Med Chem, 2024).

The subject of data set [1] is Staphylococcus aureus. The data set is described as follows: Antibacterial activity against methicillin-resistant Staphylococcus aureus N315 assessed as reduction in bacterial growth incubated for 22 to 24 hrs in presence of KCl by CLSI based broth microdilution method. The conditions noted are these: time 22-24 hrs. It is filed as functional. (In general: Broth dilution looks for growth in wells or tubes with falling amounts of substance.)

Data set [2] can be described thus: Cytotoxicity against HEK293 cells assessed as viable cells at 25 ug/ml incubated for 24 hrs by CCK-8 assay relative to control. It is filed as toxicity, cell-based. The conditions noted are these: human, at 25 µg/mL, read-out: Activity. In general terms: Tetrazolium assays rely on reduction of a dye to a coloured formazan, in cell work by metabolically active cells.

Data set [3] has as its system Staphylococcus aureus. The data set is described as follows: Antibacterial activity against methicillin-resistant Staphylococcus aureus N315 assessed as reduction in bacterial growth incubated for 22 to 24 hrs in presence of FeCl2 by CLSI based broth microdilution method. As to conditions: time 22-24 hrs. It is filed as functional.
Data set [4] deals with Staphylococcus aureus. The data set is described as follows: Antibacterial activity against Staphylococcus aureus ATCC29213 assessed as reduction in microbial growth incubated for 22 to 24 hrs by CLSI based broth microdilution method. The format is functional. The conditions noted are these: time 22-24 hrs.
For data set [5], the system named is Staphylococcus epidermidis. The data set can be described thus: Antibacterial activity against Staphylococcus epidermidis CMCC26069 assessed as reduction in microbial growth incubated for 22 to 24 hrs by CLSI based broth microdilution method. It is filed as functional. As to conditions: time 22-24 hrs.
Data set [6] concerns Staphylococcus aureus. The data set can be described thus: Synergistic […] activity against Staphylococcus aureus ATCC29213 assessed as fractional inhibitory concentration index incubated for 22 to 24 hrs in presence of tobramycin by CLSI based broth microdilution method. It is filed as functional. As to conditions: time 22-24 hrs.
Data set [7] deals with Staphylococcus aureus. The data set can be described thus: Antibacterial activity against methicillin-resistant Staphylococcus aureus N315 assessed as reduction in bacterial growth incubated for 22 to 24 hrs in presence of ZnSO4.7H2O by CLSI based broth microdilution method. The format is functional. As to conditions: time 22-24 hrs.
The subject of data set [8] is Staphylococcus aureus. The data set is described as follows: Antibacterial activity against Staphylococcus aureus ATCC29213 assessed as reduction in bacterial growth incubated for 22 to 24 hrs in presence of MgCl2 by CLSI based broth microdilution method. It is filed as functional. As to conditions: time 22-24 hrs.
Data set [9] is described as follows: Cytotoxicity against mouse NCTC clone 929 cells assessed as viable cells at 50 ug/ml incubated for 24 hrs by CCK-8 assay relative to control. It is filed as toxicity, cell-based. As to conditions: NCTC clone 929 (L929) cells, at 50 µg/mL, read-out: Activity.
Data set [10] deals with Staphylococcus aureus. The data set can be described thus: Synergistic […] activity against Staphylococcus aureus ATCC29213 assessed as fractional inhibitory concentration index incubated for 22 to 24 hrs in presence of mupirocin by CLSI based broth microdilution method. It is filed as functional. As to conditions: time 22-24 hrs.
Data set [11] has as its system Staphylococcus aureus. The data set can be described thus: Antibacterial activity against Staphylococcus aureus ATCC29213 assessed as reduction in bacterial growth incubated for 22 to 24 hrs in presence of KCl by CLSI based broth microdilution method. The format is functional. As to conditions: time 22-24 hrs.

`COC(=O)[C@H](CCCNC(=N)N)NC(=O)[C@H](CCCNC(=N)N)NC(=O)COc1ccc(S(=O)(=O)c2ccc(OC/C=C(/C)CCC=C(C)C)cc2)cc1`: the MIC (with Staphylococcus aureus [1]; with Staphylococcus aureus [3]; in the data set with Staphylococcus aureus [4]; in data set [5]; in the data set with Staphylococcus aureus [7]; with Staphylococcus aureus [8]) was 1.56 µg/mL throughout. Also, in the data set with Staphylococcus aureus [11], the MIC was 1.56 µg/mL. Also, in [2], the viability at 24 h, 25 ug/ml was determined as 93.8%. Moreover, the figures for the “fractional inhibitory concentration index (FICI)” value in the data set with Staphylococcus aureus [6] and in the data set with Staphylococcus aureus [10] were 0.38 and 0.625, respectively. Moreover, in [9], the viability at 24 h, 50 ug/ml is 84.7%.

The term MIC denotes the lowest concentration that inhibits growth of the organism.
